Some test systems named below: 786-0 renal; HOP-62 NSCLC; IGROV1 ovarian; K-562 leukemia; NCI-H226 lung; NCI/ADR-RES ovarian; SK-OV-3 ovarian.
Common to all, as to experiment: inhibition of tumour cell growth, NCI panel, 48 h

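Dose response: 5 concentrations. Exposure: 48 h. Format: 96-well plates. Endpoint: linear interpolation; highest concentration if not reached. TGI is the concentration that stops growth completely.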 Where only a bound is given, the exact number is not on record here.

`COc1ccc(N2C(=O)C3c4[nH]c5ccccc5c4C4c5ccccc5CC4C3C2=O)cc1` (centres undefined): the TGI in the assay on 786-0 renal, in the assay with HOP-62 NSCLC, in the assay on IGROV1 ovarian, in the assay with K-562 leukemia, with NCI-H226 lung and in the assay with NCI/ADR-RES ovarian was > 100 µM in each case. The TGI with SK-OV-3 ovarian is > 100 µM.
For the compound `N#Cc1ccc(C2Oc3ccc(Cl)cc3C=C2[N+](=O)[O-])cc1` (centres undefined), the TGI is 3.8 µM in the assay on HOP-62 NSCLC; 3.11 µM in the assay with IGROV1 ovarian; 2.04 µM in the assay with K-562 leukemia; 29.6 µM with NCI-H226 lung; > 100 µM in the assay on NCI/ADR-RES ovarian; 5.57 µM in the assay with SK-OV-3 ovarian.
For the compound `C[C@@]12C[C@@H](c3ccccc3O1)N1Cc3ccccc3CSC1=N2`, the TGI with 786-0 renal, with HOP-62 NSCLC, with IGROV1 ovarian, in the assay with K-562 leukemia, with NCI-H226 lung and in the assay on NCI/ADR-RES ovarian was > 100 µM each time. In addition, the TGI in the assay on SK-OV-3 ovarian is > 100 µM.
Consider `COc1cc2[nH]c(=O)c3cc(C)cc4c(Cl)nc(c1OC)c2c43`, for which the TGI is > 100 µM in the assay with 786-0 renal; 75.7 µM in the assay with HOP-62 NSCLC; > 100 µM in the assay on IGROV1 ovarian; > 100 µM with K-562 leukemia; > 100 µM in the assay with NCI-H226 lung; > 100 µM with NCI/ADR-RES ovarian. Moreover, in the assay on SK-OV-3 ovarian, the TGI is > 100 µM.
As for `CN(/N=C/c1ccc(Cl)cc1)C1=NCCCCN1`, the TGI in the assay with 786-0 renal, in the assay on HOP-62 NSCLC, in the assay with IGROV1 ovarian, in the assay on K-562 leukemia, in the assay with NCI-H226 lung and with NCI/ADR-RES ovarian was > 100 µM throughout. The TGI in the assay on SK-OV-3 ovarian was > 100 µM.
`CC(=O)N1C(Nc2cccc3nc(C)ccc23)CCN1c1ccccc1` (centres undefined): the TGI with 786-0 renal, in the assay with HOP-62 NSCLC, in the assay on IGROV1 ovarian, in the assay on K-562 leukemia, with NCI-H226 lung and in the assay with NCI/ADR-RES ovarian was > 10 µM throughout. In addition, the TGI in the assay on SK-OV-3 ovarian is > 10 µM.
Take `S=C(N/N=C(\C(=N/NC(=S)N1CCCCC1)c1ccccn1)c1ccccn1)N1CCCCC1`: the TGI in the assay on 786-0 renal, in the assay on HOP-62 NSCLC, in the assay with IGROV1 ovarian, in the assay with K-562 leukemia, in the assay on NCI-H226 lung and in the assay on NCI/ADR-RES ovarian was > 100 µM each time. Moreover, in the assay with SK-OV-3 ovarian, the TGI is > 100 µM.
Consider `Cc1cn([C@@H]2C[C@H](CO)[C@@H]2O)c(=O)[nH]c1=O`, for which the TGI in the assay on 786-0 renal, with HOP-62 NSCLC, in the assay with IGROV1 ovarian, in the assay with K-562 leukemia, in the assay on NCI-H226 lung and in the assay with NCI/ADR-RES ovarian was > 100 µM throughout.
For the compound `CC(=O)c1[nH]c(Nc2ccc(C)cc2)c(C(=S)Nc2ccccc2)c1N`, the TGI in the assay with 786-0 renal is 34.3 µM; in the assay on HOP-62 NSCLC, 42.1 µM; with IGROV1 ovarian, 35.7 µM; in the assay with K-562 leukemia, 72.2 µM; in the assay with NCI-H226 lung it was 32.4 µM; in the assay with NCI/ADR-RES ovarian it was 89.4 µM. Besides, the TGI in the assay on SK-OV-3 ovarian was > 100 µM.
`CCOC1NC(/N=C/c2ccc(OC)cc2)=C(C#N)C1C#N` (centres undefined): the TGI with 786-0 renal, in the assay with HOP-62 NSCLC, with IGROV1 ovarian, in the assay with K-562 leukemia, in the assay on NCI-H226 lung and in the assay on NCI/ADR-RES ovarian was > 100 µM in each case. In addition, the TGI in the assay on SK-OV-3 ovarian is > 100 µM.
Regarding `OC(C1CCCCCCCCCC1)C(O)C1CCCCCCCCCC1` (centres undefined), the TGI in the assay with 786-0 renal, with HOP-62 NSCLC, with IGROV1 ovarian, in the assay with K-562 leukemia, in the assay with NCI-H226 lung and with NCI/ADR-RES ovarian was > 100 µM throughout. For the same compound, the TGI with SK-OV-3 ovarian is > 100 µM.
In the case of `O=C1O[C@H]2C3C4CCC(C4[C@@H]2I)[C@H]13` (some centres undefined), the TGI with 786-0 renal, with HOP-62 NSCLC, in the assay with IGROV1 ovarian, in the assay with K-562 leukemia, in the assay with NCI-H226 lung and in the assay on NCI/ADR-RES ovarian was > 100 µM in each case.
In the case of `COc1ccc(C2C(C#N)=C(S)N(C3OC(CO)C(O)C(O)C3O)C(C)=C2C(C)=O)cc1` (centres undefined), the TGI in the assay on 786-0 renal, in the assay on HOP-62 NSCLC, in the assay on IGROV1 ovarian, in the assay with K-562 leukemia, in the assay with NCI-H226 lung and in the assay with NCI/ADR-RES ovarian was > 100 µM throughout.
As to `CC(=O)c1ccc2c3c1O[C@H]1c4[nH]c5ccccc5c4C[C@@]4(O)[C@@H](C2)N(CC2CC2)CC[C@]314`, the TGI in the assay with 786-0 renal worked out at 28.3 µM; in the assay on HOP-62 NSCLC, 36.5 µM; in the assay on IGROV1 ovarian, 30.1 µM; in the assay on K-562 leukemia it was 41.3 µM; in the assay on NCI-H226 lung it was 42.5 µM; in the assay on NCI/ADR-RES ovarian, 26.6 µM. In the assay with SK-OV-3 ovarian, this compound gave a TGI of 35.9 µM.
Consider `Cc1ccc(N=C2SC(=NN(C)C)SC2=Nc2ccc(C)cc2)cc1`, for which the TGI with 786-0 renal, with HOP-62 NSCLC, in the assay on IGROV1 ovarian, in the assay with K-562 leukemia, with NCI-H226 lung and with NCI/ADR-RES ovarian was > 100 µM in each case. The TGI with SK-OV-3 ovarian is > 100 µM.
For `COc1cc(O)cc(O)c1C(=O)CC(Cl)(Cl)Cl`, the TGI in the assay on 786-0 renal, in the assay on HOP-62 NSCLC, in the assay on IGROV1 ovarian, with K-562 leukemia, with NCI-H226 lung and with NCI/ADR-RES ovarian was > 100 µM in each case. Besides, in the assay on SK-OV-3 ovarian, the TGI is > 100 µM.
`Nc1ccccc1OCCCOc1ccccc1N`: the TGI in the assay with 786-0 renal, with HOP-62 NSCLC, in the assay with IGROV1 ovarian, in the assay with K-562 leukemia, in the assay on NCI-H226 lung and with NCI/ADR-RES ovarian was > 100 µM throughout. Besides, the TGI in the assay with SK-OV-3 ovarian was > 100 µM.
For `COc1ccc(Cn2c3ccc([N+](=O)[O-])cc3c(=O)n2Cc2ccccn2)cc1`, the TGI in the assay on 786-0 renal, in the assay with HOP-62 NSCLC, in the assay with IGROV1 ovarian, in the assay on K-562 leukemia, in the assay on NCI-H226 lung and with NCI/ADR-RES ovarian was > 100 µM each time. Besides, the TGI in the assay with SK-OV-3 ovarian is > 100 µM.
`CCn1c(=O)c2c3ccc(OC)cc3[nH]c2c2ccc(OC)cc21`: the TGI in the assay on 786-0 renal, with HOP-62 NSCLC, in the assay on IGROV1 ovarian, in the assay on K-562 leukemia, in the assay on NCI-H226 lung and in the assay with NCI/ADR-RES ovarian was > 100 µM each time. Moreover, in the assay on SK-OV-3 ovarian, the TGI is > 100 µM.

Values taken from PubChem BioAssay (NCI).
